Test system: Lolium multiflorum Lam.
Assay: Test Example 5: herbicidal effect by foliage application, plastic box (symbol K)
Format: in vivo
Conditions: 3 weeks after application
Outline: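 Sowing in sterilized diluvial soil, 14 days' greenhouse growth at 25° C. to 30° C., then uniform small-sprayer foliar application of aqueous emulsion dilution; plants scored three weeks afterwards.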

Compound	K: Lolium multiflorum Lam., herbicidal effect grade (320 g/ha)	K: Lolium multiflorum Lam., herbicidal effect (criteria 0-5) (320 g/ha)	other results
COCCON=C(C)CC1CC(O)=C(c2c(C)cc(-n3cc(Cl)cn3)cc2C)C1=O (stereo not drawn) [9-016]	5 (Herbicidal ratio of 90% or more (almost completely withered))	–	–
CON=C(C)CC1CC(OC(=O)C(C)(C)C)=C(c2c(C)cc(C)cc2C)C1=O (stereo not drawn) [1-004, 2-mesityl-4-{2-(methoxyimino)propyl}-3-oxocyclopent-1-en-1-yl pivalate]	5 (Herbicidal ratio of 90% or more (almost completely withered))	–	–
Cc1cc(Br)cc(C)c1C1=C(O)CC(CC(=O)C2CC2)C1=O (racemic) [10-004]	5 (Herbicidal ratio of 90% or more (almost completely withered))	–	–
CON=C(C)CC1CC(OC(C)=O)=C(c2c(C)cc(C)cc2C)C1=O (stereo not drawn) [1-005]	5 (Herbicidal ratio of 90% or more (almost completely withered))	–	–
CON=C(CC1CC(O)=C(c2c(C)cc(C)cc2C)C1=O)c1ccc(F)cc1 (stereo not drawn) [1-133]	–	5 (Herbicidal ratio of 90% or more (almost completely withered))	–
CON=C(C)CC1CC(OC(=O)C2CCCO2)=C(c2c(C)cc(C)cc2C)C1=O (stereo not drawn) [1-076]	–	–	K: Lolium multiflorum Lam., herbicidal effect (criteria 0-5) (192 g/ha): 5 (Herbicidal ratio of 90% or more (almost completely withered))
CC#Cc1cc(C)c(C2=C(O)CC(CC(=NOC)C(C)C)C2=O)c(C)c1 (stereo not drawn) [9-006]	5 (Herbicidal ratio of 90% or more (almost completely withered))	–	–
CC#Cc1cc(C)c(C2=C(O)CC(CC(C)=NOCC(F)(F)F)C2=O)c(C)c1 (stereo not drawn) [9-011]	5 (Herbicidal ratio of 90% or more (almost completely withered))	–	–
CON=C(C)CC1CC(OC(=O)C#C[Si](C)(C)C)=C(c2c(C)cc(C)cc2C)C1=O (stereo not drawn) [1-096]	–	5 (Herbicidal ratio of 90% or more (almost completely withered))	–
CON=C(CC1CC(OC(=O)N2CCOCC2)=C(c2c(C)cc(C)cc2OC)C1=O)C1CC1 (mixture of isomers) [13-005]	5 (Herbicidal ratio of 90% or more (almost completely withered))	–	–
CON=C(C)CC1CC(OC(=O)C(CSC)=NOC)=C(c2c(C)cc(C)cc2C)C1=O (stereo not drawn) [1-098]	–	5 (Herbicidal ratio of 90% or more (almost completely withered))	–
CON=C(C)CC1CC(OS(C)(=O)=O)=C(c2c(C)cc(C)cc2C)C1=O (stereo not drawn) [1-006]	5 (Herbicidal ratio of 90% or more (almost completely withered))	–	–
CON=C(C)CC1(C)CC(O)=C(c2c(C)cc(C)cc2C)C1=O (mixture of isomers) [11-002]	5 (Herbicidal ratio of 90% or more (almost completely withered))	–	–
CON=C(C)CC1CC(OC(=O)N2CCOCC2)=C(c2c(C)cc(C)cc2C)C1=O (stereo not drawn) [1-104]	–	5 (Herbicidal ratio of 90% or more (almost completely withered))	–
CON=C(C)CC1CC(OC(=O)CN(C)C(=O)c2ccccc2)=C(c2c(C)cc(C)cc2C)C1=O (stereo not drawn) [1-139]	–	5 (Herbicidal ratio of 90% or more (almost completely withered))	–
CC(CC1CC(O)=C(c2c(C)cc(C)cc2C)C1=O)=NOCC1OCCO1 (stereo not drawn) [1-111]	–	5 (Herbicidal ratio of 90% or more (almost completely withered))	–
C=C(C)CN(CC)C(=O)OC1=C(c2c(C)cc(C)cc2C)C(=O)C(CC(C)=NOC)C1 (stereo not drawn) [1-130]	–	5 (Herbicidal ratio of 90% or more (almost completely withered))	–
CC(CC1CC(OC(=O)N2CCOCC2)=C(c2c(C)cc(-c3ccc(Cl)cc3)cc2C)C1=O)=NOCC(F)(F)F (mixture of isomers) [9-025]	0 (Herbicidal ratio of 5% or lower (almost no effect))	–	–
COCCON=C(CC1CC(O)=C(c2c(C)cc(-n3cc(Cl)cn3)cc2C)C1=O)C1CC1 (stereo not drawn) [9-020]	5 (Herbicidal ratio of 90% or more (almost completely withered))	–	–
CC(CC1CC(O)=C(c2c(C)cc(C)cc2C)C1=O)=NOCC1CC1(F)F (stereo not drawn) [1-109]	–	5 (Herbicidal ratio of 90% or more (almost completely withered))	–
CC#Cc1cc(C)c(C2=C(OC(=O)COc3ccccc3)CC(CC(C)=NOCC(F)(F)F)C2=O)c(C)c1 (stereo not drawn) [9-013]	5 (Herbicidal ratio of 90% or more (almost completely withered))	–	–
CC(CC1CC(O)=C(c2c(C)cc(C)cc2C)C1=O)=NOCC(C)Cl (stereo not drawn) [1-121]	–	5 (Herbicidal ratio of 90% or more (almost completely withered))	–
CC(CC1CC(O)=C(c2c(C)cc(C)cc2C)C1=O)=NOCCS(C)(=O)=O (stereo not drawn) [1-110]	–	5 (Herbicidal ratio of 90% or more (almost completely withered))	–
CC(CC1CC(O)=C(c2c(C)cc(C)cc2C)C1=O)=NOCC[S+](C)[O-] (stereo not drawn) [1-125]	–	5 (Herbicidal ratio of 90% or more (almost completely withered))	–
CON=C(C)CC1CC(OC(=O)N(C)C)=C(c2c(C)cc(C)cc2C)C1=O (stereo not drawn) [1-108]	–	5 (Herbicidal ratio of 90% or more (almost completely withered))	–
CC(CC1CC(O)=C(c2c(C)cc(C)cc2C)C1=O)=NOCc1ccccc1C(F)(F)F (stereo not drawn) [1-116]	–	5 (Herbicidal ratio of 90% or more (almost completely withered))	–

Compound	K: Lolium multiflorum Lam., herbicidal effect grade (320 g/ha)	K: Lolium multiflorum Lam., herbicidal effect (criteria 0-5) (320 g/ha)	other results
CC#Cc1cc(C)c(C2=C(O)CC(CC(=NOCCOC)C3CC3)C2=O)c(C)c1 (stereo not drawn) [9-021]	5 (Herbicidal ratio of 90% or more (almost completely withered))	–	–
COC(=O)C(C(=O)C1CC1)C1CC(O)=C(c2c(C)cc(Br)cc2C)C1=O (mixture of isomers) [10-002]	5 (Herbicidal ratio of 90% or more (almost completely withered))	–	–
COCCON=C(C)CC1CC(O)=C(c2c(C)cc(Br)cc2C)C1=O (stereo not drawn) [9-017]	5 (Herbicidal ratio of 90% or more (almost completely withered))	–	–
CCC(CC1CC(O)=C(c2c(C)cc(Br)cc2OC)C1=O)=NOC (mixture of isomers) [13-001]	5 (Herbicidal ratio of 90% or more (almost completely withered))	–	–
Cc1cc(Br)cc(C)c1C1=C(O)CC(CC(=NOCC(F)(F)F)C2CC2)C1=O (stereo not drawn) [9-009]	5 (Herbicidal ratio of 90% or more (almost completely withered))	–	–
Cc1cc(-n2cc(Cl)cn2)cc(C)c1C1=C(O)CC(CC(=NOCC(F)(F)F)C(C)C)C1=O (stereo not drawn) [9-014]	4 (Herbicidal ratio of 70% or higher and lower than 90%)	–	–
CON=C(CC1CC(O)=C(c2c(C)cc(C)cc2OC)C1=O)C1CC1 (mixture of isomers) [13-002]	5 (Herbicidal ratio of 90% or more (almost completely withered))	–	–
CC(CC1CC(O)=C(c2c(C)cc(C)cc2C)C1=O)=NOCc1cccc(Cl)c1 (stereo not drawn) [1-114]	–	5 (Herbicidal ratio of 90% or more (almost completely withered))	–
COc1ccc(CON=C(C)CC2CC(O)=C(c3c(C)cc(C)cc3C)C2=O)cc1 (stereo not drawn) [1-112]	–	5 (Herbicidal ratio of 90% or more (almost completely withered))	–
CC#Cc1cc(C)c(C2=C(O)CC(CC(=NOC)C3CC3)C2=O)c(C)c1 (stereo not drawn) [9-008]	5 (Herbicidal ratio of 90% or more (almost completely withered))	–	–
COCCON=C(CC1CC(O)=C(c2c(C)cc(Br)cc2C)C1=O)C1CC1 (stereo not drawn) [9-019]	5 (Herbicidal ratio of 90% or more (almost completely withered))	–	–
COC(=O)c1ccc(CON=C(C)CC2CC(O)=C(c3c(C)cc(C)cc3C)C2=O)cc1 (stereo not drawn) [1-118]	–	5 (Herbicidal ratio of 90% or more (almost completely withered))	–
CON=C(C)CC1C(O)=C(c2c(C)cc(C)cc2C)C(=O)C1C (mixture of isomers) [12-002]	5 (Herbicidal ratio of 90% or more (almost completely withered))	–	–
Cc1cc(Br)cc(C)c1C1=C(O)CC(CC(=O)C(C)C)C1=O (racemic) [10-003]	4 (Herbicidal ratio of 70% or higher and lower than 90%)	–	–
CON=C(C)CON=C(C)CC1CC(O)=C(c2c(C)cc(C)cc2C)C1=O (stereo not drawn) [1-105]	–	5 (Herbicidal ratio of 90% or more (almost completely withered))	–
CC(CC1CC(O)=C(c2c(C)cc(C)cc2C)C1=O)=NOCC(N)=O (stereo not drawn) [1-124]	–	4 (Herbicidal ratio of 70% or higher and lower than 90%)	–
CC(CC1CC(O)=C(c2c(C)cc(C)cc2C)C1=O)=NOCc1ccccc1[N+](=O)[O-] (stereo not drawn) [1-119]	–	5 (Herbicidal ratio of 90% or more (almost completely withered))	–
CC(=O)C(C)C1CC(O)=C(c2c(C)cc(C)cc2C)C1=O (stereo not drawn) [2-005]	–	–	K: Lolium multiflorum Lam., herbicidal effect grade (269 g/ha): 5 (Herbicidal ratio of 90% or more (almost completely withered))
CC(CC1CC(O)=C(c2c(C)cc(C)cc2C)C1=O)=NOC1CCCC1 (stereo not drawn) [1-106]	–	5 (Herbicidal ratio of 90% or more (almost completely withered))	–
CC(CC1CC(O)=C(c2c(C)cc(C)cc2C)C1=O)=NOCc1ccccc1Cl (stereo not drawn) [1-113]	–	5 (Herbicidal ratio of 90% or more (almost completely withered))	–
CC#Cc1cc(C)c(C2=C(O)CC(CC(=NOCCOC)C(C)C)C2=O)c(C)c1 (stereo not drawn) [9-023]	5 (Herbicidal ratio of 90% or more (almost completely withered))	–	–
COCCON=C(CC1CC(O)=C(c2c(C)cc(-n3cc(Cl)cn3)cc2C)C1=O)C(C)C (stereo not drawn) [9-022]	2 (Herbicidal ratio of 20% or higher and lower than 40%)	–	–
CON=C(C)CC1CC(OC(=O)N(C)CCCCCl)=C(c2c(C)cc(C)cc2C)C1=O (stereo not drawn) [1-126]	–	5 (Herbicidal ratio of 90% or more (almost completely withered))	–
CCC(CC1CC(O)=C(c2c(C)cc(-c3ccccc3)cc2OC)C1=O)=NOC (mixture of isomers) [13-004]	5 (Herbicidal ratio of 90% or more (almost completely withered))	–	–
CON=C(C)CC1CC(OC(=O)c2nsc(Cl)c2Cl)=C(c2c(C)cc(C)cc2C)C1=O (stereo not drawn) [1-099]	–	5 (Herbicidal ratio of 90% or more (almost completely withered))	–

From US11000033B2, “Ketone or oxime compound, and herbicide” (NISSAN CHEMICAL CORPORATION, priority 2014, dated 2021)
